SMILES strings stand for the structures. Positions of bridges follow the written chain, without caps; N, C: chain ends. Residues, ends and D or L forms follow the SMILES beside them.

The target of the assay is T1, rat α6/α3β2β3 nAChRs (Rattus norvegicus, UniProt P04757+P12390+P43143).
T1 construct: remaining part of the rat nAChR α3 subunit (Chrna3, UniProt P04757 by own knowledge), fused after the α6 extracellular portion; expressed in transfected cells; host or cells: Xenopus oocytes injected with in vitro transcribed cRNA
T1 sequence (P04757 whole entry, looked up, the tested form may be a part): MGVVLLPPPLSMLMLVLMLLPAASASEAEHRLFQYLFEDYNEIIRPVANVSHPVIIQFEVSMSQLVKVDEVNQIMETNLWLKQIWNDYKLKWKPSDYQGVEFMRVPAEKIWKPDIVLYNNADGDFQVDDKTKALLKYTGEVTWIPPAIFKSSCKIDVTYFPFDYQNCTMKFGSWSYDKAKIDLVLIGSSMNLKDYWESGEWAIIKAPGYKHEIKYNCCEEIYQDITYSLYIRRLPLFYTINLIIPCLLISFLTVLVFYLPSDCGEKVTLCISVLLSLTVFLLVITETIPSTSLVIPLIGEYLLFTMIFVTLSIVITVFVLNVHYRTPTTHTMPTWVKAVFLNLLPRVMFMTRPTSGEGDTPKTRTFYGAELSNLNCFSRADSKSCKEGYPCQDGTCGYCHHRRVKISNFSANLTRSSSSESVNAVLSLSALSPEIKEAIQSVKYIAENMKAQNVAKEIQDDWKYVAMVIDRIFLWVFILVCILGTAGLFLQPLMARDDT
T1 sequence (P12390 whole entry, looked up, the tested form may be a part): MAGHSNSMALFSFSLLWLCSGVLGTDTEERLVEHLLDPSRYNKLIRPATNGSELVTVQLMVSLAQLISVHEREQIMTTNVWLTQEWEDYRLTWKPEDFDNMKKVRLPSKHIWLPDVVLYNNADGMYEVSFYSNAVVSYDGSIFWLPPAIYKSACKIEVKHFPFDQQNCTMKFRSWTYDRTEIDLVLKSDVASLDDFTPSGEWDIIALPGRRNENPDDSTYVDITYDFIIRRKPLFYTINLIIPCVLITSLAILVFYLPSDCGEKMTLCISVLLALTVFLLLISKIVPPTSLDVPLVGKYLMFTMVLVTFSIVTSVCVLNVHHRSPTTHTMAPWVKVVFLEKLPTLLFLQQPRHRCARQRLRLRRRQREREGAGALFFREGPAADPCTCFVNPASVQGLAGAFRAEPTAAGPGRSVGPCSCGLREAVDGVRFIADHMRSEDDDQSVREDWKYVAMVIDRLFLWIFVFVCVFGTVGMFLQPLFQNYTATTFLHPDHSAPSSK
T1 sequence (P43143 whole entry, looked up, the tested form may be a part): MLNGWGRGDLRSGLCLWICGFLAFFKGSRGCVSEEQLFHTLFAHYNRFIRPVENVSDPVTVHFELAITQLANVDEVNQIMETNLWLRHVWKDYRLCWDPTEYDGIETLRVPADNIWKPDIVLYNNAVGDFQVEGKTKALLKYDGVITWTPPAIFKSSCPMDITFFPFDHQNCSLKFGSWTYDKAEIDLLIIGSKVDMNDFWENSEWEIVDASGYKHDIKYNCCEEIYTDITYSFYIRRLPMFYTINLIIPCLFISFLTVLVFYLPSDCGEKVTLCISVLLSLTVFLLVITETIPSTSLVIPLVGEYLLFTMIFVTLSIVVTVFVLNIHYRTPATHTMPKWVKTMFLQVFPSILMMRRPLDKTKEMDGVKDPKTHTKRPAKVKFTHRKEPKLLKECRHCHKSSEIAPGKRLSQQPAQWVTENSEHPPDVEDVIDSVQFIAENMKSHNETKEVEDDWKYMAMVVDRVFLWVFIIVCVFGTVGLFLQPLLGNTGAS
It is filed as cell-based.
For `CC(C)C[C@@H]1NC(=O)[C@H](CC(=O)O)NC(=O)[C@@H]2CCCN2C(=O)[C@H](Cc2c[nH]cn2)NC(=O)[C@H](CCCCN)NC(=O)[C@H](CC(N)=O)NC(=O)[C@H](CCCNC(=N)N)NC(=O)[C@@H]2CSSC[C@@H]3NC(=O)CNC(=O)CNC(=O)[C@H](C)NC(=O)[C@H](C)NC(=O)CNC(=O)CNC(=O)[C@H](CSSC[C@H](NC3=O)C(=O)N[C@@H](CO)C(=O)N[C@@H](CC(=O)O)C(=O)N3CCC[C@H]3C(=O)N3CCC[C@H]3C(=O)N2)NC1=O` [cTxIB-5] (cyclo(AAGGCCSDPPCRNKHPDLCGG); disulfide 5-11, 6-19), the “inhibition of α6β2* nAChRs” value is recorded as ~42%. For `CC(C)C[C@@H]1NC(=O)[C@H](CC(=O)O)NC(=O)[C@@H]2CCCN2C(=O)[C@H](Cc2c[nH]cn2)NC(=O)[C@H](CCCCN)NC(=O)[C@H](CC(N)=O)NC(=O)[C@H](CCCNC(=N)N)NC(=O)[C@@H]2CSSC[C@@H]3NC(=O)CNC(=O)CNC(=O)[C@H](C)NC(=O)[C@H](C)NC(=O)CNC(=O)[C@H](C)NC(=O)CNC(=O)[C@H](CSSC[C@H](NC3=O)C(=O)N[C@@H](CO)C(=O)N[C@@H](CC(=O)O)C(=O)N3CCC[C@H]3C(=O)N3CCC[C@H]3C(=O)N2)NC1=O` [cTxIB-6] (cyclo(AAGGCCSDPPCRNKHPDLCGAG); disulfide 5-11, 6-19), the “inhibition of α6β2* nAChRs” value was ~48%. For the compound `CC(C)C[C@@H]1NC(=O)[C@H](CC(=O)O)NC(=O)[C@@H]2CCCN2C(=O)[C@H](Cc2c[nH]cn2)NC(=O)[C@H](CCCCN)NC(=O)[C@H](CC(N)=O)NC(=O)[C@H](CCCNC(=N)N)NC(=O)[C@@H]2CSSC[C@@H]3NC(=O)CNC(=O)CNC(=O)[C@H](C)NC(=O)[C@H](C)NC(=O)CNC(=O)[C@H](CSSC[C@H](NC3=O)C(=O)N[C@@H](CO)C(=O)N[C@@H](CC(=O)O)C(=O)N3CCC[C@H]3C(=O)N3CCC[C@H]3C(=O)N2)NC1=O` [cTxIB-4] (cyclo(AAGGCCSDPPCRNKHPDLCG); disulfide 5-11, 6-19), the “inhibition of α6β2* nAChRs” value is recorded as “about 35%”. With `CC(C)C[C@@H]1NC(=O)[C@H](CC(=O)O)NC(=O)[C@@H]2CCCN2C(=O)[C@H](Cc2c[nH]cn2)NC(=O)[C@H](CCCCN)NC(=O)[C@H](CC(N)=O)NC(=O)[C@H](CCCNC(=N)N)NC(=O)[C@@H]2CSSC[C@H](NC(=O)CN)C(=O)N[C@@H](CSSC[C@@H](C(N)=O)NC1=O)C(=O)N[C@@H](CO)C(=O)N[C@@H](CC(=O)O)C(=O)N1CCC[C@H]1C(=O)N1CCC[C@H]1C(=O)N2` [TxIB, α-Conotoxin TxIB, reference compound] (H-GCCSDPPCRNKHPDLC-NH2; disulfide 2-8, 3-16) the figure was 42%; with `CC(C)C[C@@H]1NC(=O)[C@H](CC(=O)O)NC(=O)[C@@H]2CCCN2C(=O)[C@H](Cc2c[nH]cn2)NC(=O)[C@H](CCCCN)NC(=O)[C@H](CC(N)=O)NC(=O)[C@H](CCCNC(=N)N)NC(=O)[C@@H]2CSSC[C@@H]3NC(=O)CNC(=O)CNC(=O)[C@H](C)NC(=O)CNC(=O)[C@H](C)NC(=O)[C@H](C)NC(=O)CNC(=O)CNC(=O)[C@H](CSSC[C@H](NC3=O)C(=O)N[C@@H](CO)C(=O)N[C@@H](CC(=O)O)C(=O)N3CCC[C@H]3C(=O)N3CCC[C@H]3C(=O)N2)NC1=O` [cTxIB-7] (cyclo(AAGAGGCCSDPPCRNKHPDLCGG); disulfide 7-13, 8-21), ~41%.

These data come from article PMC7230940 (Marine Drugs, 2020).
